Molecular target: T1, KDM5A (Homo sapiens, UniProt P29375)
T1 construct: Full length KDM5A enzyme was expressed and purified inhouse; made in house
Test: KDM5 enzyme assay, KDM5A HTRF (Example 463)
Assay type: biochemical
Settings: compounds of Examples 1-432; read-out: Example 463 Assay KDM5A HTRF IC50
Experimental: Full length KDM5A enzyme was expressed and purified inhouse. Biotin-H3K4me3 peptide was purchased from New England Biolabs. HTRF reagents (containing Eu-labeled H3K4me1-2 antibody, and streptavidin-XL665) were purchased from Cis-Bio International. Plates were read on an Envision multi-label plate reader Perkin Elmer).
The HTRF assay mixture contained 2 nM full length KDM5A enzyme, 100 nM H3K4Me3 peptide substrate, 1 uM 2-OG, 100 uM Fe^2+, 500 uM ascorbate. 50 mM HEPES pH 7.0 buffer, 0.01% Triton-X 100, 2 mM DTT. […] The plates were incubated at room temperature for 60 minutes and then read in the Envision plate reader.

T1 sequence (P29375 whole entry): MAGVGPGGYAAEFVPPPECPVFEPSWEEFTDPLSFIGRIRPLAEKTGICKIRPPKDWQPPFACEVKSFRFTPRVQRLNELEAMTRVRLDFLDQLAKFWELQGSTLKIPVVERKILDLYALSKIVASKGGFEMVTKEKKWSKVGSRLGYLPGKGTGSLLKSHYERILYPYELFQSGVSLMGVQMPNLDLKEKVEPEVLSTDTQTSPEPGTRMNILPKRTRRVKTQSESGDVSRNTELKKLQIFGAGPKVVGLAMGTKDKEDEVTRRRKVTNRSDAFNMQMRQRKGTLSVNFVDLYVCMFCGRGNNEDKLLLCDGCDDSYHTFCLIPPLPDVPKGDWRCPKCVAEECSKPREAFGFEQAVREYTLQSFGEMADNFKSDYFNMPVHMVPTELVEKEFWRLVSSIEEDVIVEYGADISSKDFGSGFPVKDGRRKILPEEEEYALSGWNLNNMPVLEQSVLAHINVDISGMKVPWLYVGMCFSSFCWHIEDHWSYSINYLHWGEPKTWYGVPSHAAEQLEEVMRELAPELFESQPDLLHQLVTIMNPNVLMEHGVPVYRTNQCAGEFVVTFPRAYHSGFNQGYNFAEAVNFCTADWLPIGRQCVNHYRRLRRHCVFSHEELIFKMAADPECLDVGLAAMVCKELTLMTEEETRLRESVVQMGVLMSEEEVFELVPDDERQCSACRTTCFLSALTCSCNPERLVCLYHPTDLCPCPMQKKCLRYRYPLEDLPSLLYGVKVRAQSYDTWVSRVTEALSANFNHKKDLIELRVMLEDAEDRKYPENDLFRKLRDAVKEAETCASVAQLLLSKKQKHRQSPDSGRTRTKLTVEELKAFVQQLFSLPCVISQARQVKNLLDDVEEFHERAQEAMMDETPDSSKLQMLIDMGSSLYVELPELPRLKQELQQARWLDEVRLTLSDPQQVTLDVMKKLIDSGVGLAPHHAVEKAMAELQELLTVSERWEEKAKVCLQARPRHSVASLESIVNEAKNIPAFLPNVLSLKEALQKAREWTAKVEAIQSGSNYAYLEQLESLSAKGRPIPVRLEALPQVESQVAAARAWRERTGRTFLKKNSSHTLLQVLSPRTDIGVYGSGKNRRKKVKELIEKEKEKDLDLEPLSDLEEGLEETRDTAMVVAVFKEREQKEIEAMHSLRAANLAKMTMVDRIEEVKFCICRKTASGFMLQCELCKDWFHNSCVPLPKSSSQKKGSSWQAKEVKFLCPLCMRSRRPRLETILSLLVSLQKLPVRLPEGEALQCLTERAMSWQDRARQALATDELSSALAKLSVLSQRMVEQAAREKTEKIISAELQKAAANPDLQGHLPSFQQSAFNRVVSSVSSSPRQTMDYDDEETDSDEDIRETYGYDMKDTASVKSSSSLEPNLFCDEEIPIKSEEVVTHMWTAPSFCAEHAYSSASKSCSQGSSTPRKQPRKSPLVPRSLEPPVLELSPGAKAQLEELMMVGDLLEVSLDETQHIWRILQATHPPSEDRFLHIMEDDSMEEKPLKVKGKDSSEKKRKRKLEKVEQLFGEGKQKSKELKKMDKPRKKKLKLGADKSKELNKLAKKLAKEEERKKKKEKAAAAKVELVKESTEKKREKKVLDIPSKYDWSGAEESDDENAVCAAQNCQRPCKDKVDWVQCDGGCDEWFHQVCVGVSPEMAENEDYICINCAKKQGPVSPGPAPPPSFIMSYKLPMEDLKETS

Row | SMILES | IC50 [nM]
1 | CCc1c(-c2cccc(N3CCC(c4ccccc4)C3=O)c2)[nH]c2c(C#N)cnn2c1=O (centres unmarked) [Compound 423] | 20
2 | CC(C)c1c(-c2cccc(N3CCC(c4ccccc4)C3=O)c2)[nH]c2c(C#N)cnn2c1=O (centres unmarked) [Compound 424] | 8
3 | C=CCc1c(-c2cnn(C(C)C)c2)[nH]c2c(C#N)cnn2c1=O [Compound 425] | 16
4 | CCc1c(-c2cccc(/C=C/c3ccccc3)c2)[nH]c2c(C#N)cnn2c1=O [Compound 426] | 23
5 | CC(C)c1c(-c2cccc(-c3cccc(C#N)c3)c2)[nH]c2c(C#N)cnn2c1=O [Compound 427] | 39
6 | CC(C)c1c(-c2cccc(-c3cccc(NS(C)(=O)=O)c3)c2)[nH]c2c(C#N)cnn2c1=O [Compound 428] | 14
7 | CC(C)c1c(-c2cccc(-c3ccc(NS(C)(=O)=O)cc3)c2)[nH]c2c(C#N)cnn2c1=O [Compound 429] | 27
8 | CNS(=O)(=O)c1ccc(-c2cccc(-c3[nH]c4c(C#N)cnn4c(=O)c3C(C)C)c2)cc1 [Compound 430] | 32
9 | CC(C)n1cc(-c2[nH]c3c(C#N)cnn3c(=O)c2C2CCC2)cn1 [Compound 431] | 21
10 | CC(C)n1cc(-c2[nH]c3c(C#N)cnn3c(=O)c2C2(C)CCC2)cn1 [Compound 432] | 56
11 | CC(C)c1c(Cl)[nH]c2c(C#N)cnn2c1=O [Example 1, 5-chloro-6-isopropyl-7-oxo-4,7-dihydropyrazolo[1,5-a]pyrimidine-3-carbonitrile] | 4.3
12 | CCc1c(Cl)[nH]c2c(C#N)cnn2c1=O [Example 2, 5-chloro-6-ethyl-7-oxo-4,7-dihydropyrazolo[1,5-a]pyrimidine-3-carbonitrile] | 3
13 | CC(C)c1c(-c2ccoc2)[nH]c2c(C#N)cnn2c1=O [Example 3, 5-(furan-3-yl)-6-isopropyl-7-oxo-4,7-dihydropyrazolo[1,5-a]pyrimidine-3-carbonitrile] | 3.8
14 | CC(C)c1c(-c2ccoc2)n(C)c2c(C#N)cnn2c1=O [Example 4, 5-(furan-3-yl)-6-isopropyl-4-methyl-7-oxo-4,7-dihydropyrazolo[1,5-a]pyrimidine-3-carbonitrile] | 65

Now from value to molecule:

Row | IC50 [nM] | SMILES
15 | 5.5 | CC(C)c1c(-c2cn[nH]c2)[nH]c2c(C#N)cnn2c1=O [Example 5, 6-Isopropyl-7-oxo-5-(1H-pyrazol-4-yl)-4,7-dihydropyrazolo[1,5-a]pyrimidine-3-carbonitrile]
16 | 13 | CC(C)c1c(-c2cnn(CC3CC3)c2)[nH]c2c(C#N)cnn2c1=O [Example 6, 5-(1-(Cyclopropylmethyl)-1H-pyrazol-4-yl)-6-isopropyl-7-oxo-4,7-dihydropyrazolo[1,5-a]pyrimidine-3-carbonitrile]
17 | 30 | CC(C)c1c(-c2cnn(C3(C)CC3)c2)[nH]c2c(C#N)cnn2c1=O [Example 7, 6-Isopropyl-5-(1-(1-methylcyclopropyl)-1H-pyrazol-4-yl)-7-oxo-4,7-dihydropyrazolo[1,5-a]pyrimidine-3-carbonitrile]
18 | 22 | CC(C)c1c(-c2cn(C(C)C)nc2F)[nH]c2c(C#N)cnn2c1=O [Example 8, 5-(3-Fluoro-1-isopropyl-1H-pyrazol-4-yl)-6-isopropyl-7-oxo-4,7-dihydropyrazolo[1,5-a]pyrimidine-3-carbonitrile]
19 | 40 | CC(C)c1c(-c2cnn(C(C)(C)c3ccccc3)c2)[nH]c2c(C#N)cnn2c1=O [Example 9, 6-Isopropyl-7-oxo-5-(1-(2-phenylpropan-2-yl)-1H-pyrazol-4-yl)-4,7-dihydropyrazolo[1,5-a]pyrimidine-3-carbonitrile]
20 | 24 | CC(C)c1c(-c2cnn(-c3cccnc3)c2)[nH]c2c(C#N)cnn2c1=O [Example 10, 6-Isopropyl-7-oxo-5-(1-(pyridin-3-yl)-1H-pyrazol-4-yl)-4,7-dihydropyrazolo[1,5-a]pyrimidine-3-carbonitrile]

Source: patent US10035801B2, “Pyrazolo compounds and uses thereof” (CONSTELLATION PHARMACEUTICALS, INC., priority 2013, dated 2018)
